Assay results taken from ChEMBL document CHEMBL1157539, “Thousands of chemical starting points for antimalarial lead identification” (Nature, 2010).

Tested on: Plasmodium falciparum
Assay: GSK_TCMDC: Inhibition of Plasmodium falciparum 3D7 in whole erythrocytes, using parasite LDH activity as an index of growth.
Format: functional, organism-based
Conditions: Plasmodium falciparum, 3D7

Compound	XC50 [nM]
O=[N+]([O-])c1ccccc1/C=N/Nc1ccnc2ccc(C(F)(F)F)cc12	710
Cc1cc(N/N=C/c2cccc([N+](=O)[O-])c2)c2ccc(F)cc2n1	690
Cc1nc(O)c2c(ccc3ccc(CN(C)c4ccc(C(=O)N[C@@H](CCC(=O)O)C(=O)O)cc4)cc32)n1	879
CCN(CC)CCN(Cc1ccc(-c2ccc(C(F)(F)F)cc2)cc1)C(=O)Cn1c(CCc2cccc(F)c2F)cc(=O)c(C)c1C	624
O=C(O)c1ccc(-c2c[nH]c3ncc(-c4ccc(Cl)cc4)cc23)cc1	726
COc1cc2nc(-c3ccccc3)nc(N3CCN(CC(=O)N4CCCC4)CC3)c2cc1OC	1130
CCc1ccccc1OCCCON1C(=N)N=C(N)NC1(C)C	3.2
O=c1cc(NC[C@H]2CCC[C@@H]2NC2CCCc3c2[nH]c2ccccc32)[nH]c2ccccc12 (stereo not given in full)	786
CC(C)(C)c1ccc(OCC(=O)NC2CCN(c3ccnc4cc(Cl)ccc34)C2)cc1 (stereo not given)	135
N=C(N)NC(=O)Nc1ccc(Cl)c(C(F)(F)F)c1	594
COc1ccc(-c2nc3cccnc3n2CC(=O)Nc2c(C)cc(C)cc2C)c(OC)c1	927
COc1ccccc1C1CC(c2ccc(Br)cc2)=NN1C(=O)c1ccccc1 (stereo not given)	1110
CCNc1cc(C(=O)NC(Cc2ccccc2)C(O)CNC(C)(C)CCCC(C)C)c(F)c(N2CCCS2(=O)=O)c1 (stereo not given)	197
COc1ccc2[nH]c(C)cc(=NN=Cc3ccc(F)cc3)c2c1	191
Cc1cc(C(=O)Nc2ccc3c(c2)CCN3C2CCN(Cc3cccc(F)c3F)C2)no1 (stereo not given)	583
COc1cc(C(=O)NC2CC(C)(C)NC(C)(C)C2)ccc1-c1cc2cc(Cl)c(Cl)cc2[nH]1	724
CSc1ccc(CN2CCC(NC(=O)c3ccc(-c4cccc(Cl)c4)s3)CC2)cc1	1290
Cn1nc(-c2ccccc2F)c2cc(C(=O)NC3CCN(Cc4ccccc4)CC3)sc21	789
O=S(=O)(Nc1cccc(CCN2CCCCC2CCN2CCCC2)c1)c1cccc2ccccc12 (stereo not given)	819
CC(=O)Nc1cccc(C(=O)Nc2cccc(-c3ccc(-c4nc5cc(C(F)(F)F)ccc5[nH]4)s3)c2)c1	652
COc1cc(Cc2cnc(N)nc2N)cc(OCCCCc2nnn[nH]2)c1OC	286
CCCCCCCCCC(=O)NCC1CC(Br)=NO1 (stereo not given)	1050
CCCCCCn1c2c(c(=N)c3c1CCC3)CCC2	178
O=C(Nc1ccc(-c2cccc(-c3nc4cc(C(F)(F)F)ccc4[nH]3)c2)cc1)Nc1ccc(Cl)c(Cl)c1	746

Compound	XC50 [nM]
CSc1nnc2n(Cc3ccccc3)c(=O)c3c(n12)-c1ccccc1CC31CCCCC1	969
Cc1c(Cc2ccccc2)c(=O)oc2c(C)c3c(cc12)CN(CC(C)c1ccccc1)CO3 (stereo not given)	454
COc1cc2cc(-c3nc4ccccc4[nH]3)c(N)nc2cc1OC	168
COc1ccc(NC(=O)Nc2ccc(-c3ccc(-c4nc5ccccc5[nH]4)cc3)cc2)cc1	509
CCCCCn1c(Sc2ccc(C#N)c([N+](=O)[O-])c2)nnc1-c1ccc(OC)cc1	1140
COc1ccc(CNCc2ccccc2)cc1-c1ccc(OC)c(S(=O)(=O)NCCN2CCCC2)c1	827
CCC(C)NS(=O)(=O)c1ccc2nc(Nc3ccc(C)c(Cl)c3)n([C@H](C)C(C)(C)C)c2c1 (stereo not given in full)	381
CCc1c(CCNCCCCCCNC(C)(C)Cc2ccc3c(c2CC)OCO3)ccc(OC)c1OC	934
Cc1ccc(NCC(=O)Nc2ccc(F)c(Cl)c2)cc1S(=O)(=O)N1CCOCC1	57.6
CN(Cc1cccc(F)c1)C1CCN(c2cc(NC(=O)c3cccc(F)c3)ccn2)CC1	1160
CC(NC(C)c1cccc(Cl)c1)C(=O)Nc1cc(C(F)(F)F)ccc1N1CCOCC1 (stereo not given)	1090
Cc1ccc(CN2CCCN(Cc3ccc(C(=O)Nc4ccc(Cl)cc4)cc3)CC2)s1	1110
CN(C)c1cccc2c(S(=O)(=O)Nc3cccc(CCN4CCC(N5CCCCC5)CC4)c3)cccc12	979
O=C(/C=C/c1ccc(Cl)c(Cl)c1)N1CCC(CN2CCC(c3c[nH]c4ncccc34)CC2)CC1	1090
O=C(Nc1cccc([N+](=O)[O-])c1)Nc1ccc(Cl)c(C(F)(F)F)c1	1120
CC[C@H](N/C(=N\c1ccc(-c2ccccc2)cc1)Nc1ccc(C#N)cc1O)c1ccccc1	759
O=C(/C=C/c1ccc(Cl)c(Cl)c1)NCCCCCN1CCC(NC(=S)Nc2ccc(Cl)c(Cl)c2)CC1	528
c1ccc(C23NC(=Nc4nc5ccccc5[nH]4)NC2(c2ccccc2)NC(=Nc2nc4ccccc4[nH]2)N3)cc1 (stereo not given)	276
Cc1[nH]c(C)c(-c2ccc(OCc3ccccc3C(F)(F)F)nc2)c(=O)c1Br	16.4
Cc1cnc(C(=O)Nc2ccc3c(c2)CCCN(Cc2c[nH]c4cnccc24)C3)cn1	1230
CCCCNC(c1ccc(Cl)cc1)C(O)c1ccc(Cl)cc1 (stereo not given)	619
N#Cc1ccc(C(=O)Nc2cc(-c3cccc(O)c3)cc3[nH]ncc23)cc1	1370
Cc1cc(NC(=O)Nc2ccc3nc(C)oc3c2)c2cc(Cl)ccc2n1	1120
CCCCCCCC1=NN2C(=N)C(=Cc3cc(Br)c(OCc4ccc(F)cc4)c(OCC)c3)C(=O)N=C2S1	1050

Compound	XC50 [nM]
Nc1c2c(nc3ccc(C(=O)Nc4ccccc4)cc13)CCCC2	714
N#Cc1ccc2c(c1)CCN(CCC1CCC(NC(=O)Nc3ccnc4ccccc34)CC1)C2 (stereo not given)	377
O=C(Nc1cc(F)cc(F)c1)NC1CCN(CCCCCNC(=O)C2CC2c2ccc(Cl)c(Cl)c2)CC1 (stereo not given)	750
Oc1cc(-c2cccc(C(F)(F)F)c2)nc(Nc2ccc(Cl)c(Cl)c2)n1	759
CS(=O)(=O)Nc1ccc(-c2cnc3[nH]cc(-c4ccc(C(=O)O)cc4)c3c2)cc1	800
CCN(CCO)Cc1ccc(-c2ccc(NS(=O)(=O)c3cccc4cccnc34)cc2)cc1	985
COc1c(C=NNc2nc(=Nc3ccccc3)[nH]c(=Nc3ccccc3)[nH]2)ccc(Br)c1O	720
COc1ccc2ncc(F)c(CCN3CC[C@H](NC(=O)c4ccc5c(n4)NC(=O)CS5)[C@H](O)C3)c2n1	947
CC(C)(CNCc1cccc(Oc2cccc(C(F)(F)F)c2)c1)c1nc(-c2ccnc(N)n2)c(-c2ccc(Cl)c(O)c2)[nH]1	193
O=C(Nc1cccc(CN2CCCN(Cc3ccsc3)CC2)c1)c1cc2ccccc2s1	758
O=S(=O)(NCCN1CCCC1)c1cccc(-c2cccc(CNCCc3cccs3)c2)c1	753
Cc1cc(OCCCN2CCCCC2C)ccc1NC(=O)COc1ccc(Cl)cc1C(=O)c1cc(Cl)cc(C#N)c1 (stereo not given)	981
COc1cccc(NC(=O)c2cc([N+](=O)[O-])ccc2NC(=O)CN2CCc3ccccc3C2)c1	589
Cc1cc(N2CCCCC2)nc2ccc(NC(=O)c3cccc([N+](=O)[O-])c3)cc12	378
O=S(=O)(c1c(Cl)cccc1Cl)N1CCCCC(c2ccc(C(F)(F)F)cc2)=N1	126
COc1ccccc1NC(=O)Nc1cccc(-c2cccc(-c3nc4cc(C(F)(F)F)ccc4[nH]3)c2)c1	120
CN(C)Cc1cccc(-c2cnc(N)c(-c3nc4cc(S(C)(=O)=O)ccc4[nH]3)c2)c1	887
FC(F)(F)c1ccc2[nH]c(-c3ccc(-c4ccc(CN5CCN(c6ccncc6)CC5)cc4)s3)nc2c1	153
CN(C(=O)Cc1ccc(Cl)c(Cl)c1)C1CCN(CCCCCNC(=O)/C=C/c2ccc(Cl)c(Cl)c2)CC1	739
CCS(=O)(=O)Nc1ccc2[nH]cc(C3CCN(CCC4CCN(C(=O)/C=C/c5ccc(Cl)c(Cl)c5)CC4)CC3)c2c1	534
CC[C@H]1CN2CC[C@@H]1C[C@H]2[C@H](O)c1cc(N2CCC(C(N)=O)CC2)nc2ccc(OC)cc12	773
COc1cccc(CNC[C@@H](O)[C@H](Cc2ccccc2)NC(=O)c2cc(N3CCCC3=O)c3[nH]cc(C(C)C)c3c2)c1	529
COc1cc(Cc2cnc(N)nc2N)cc(OCCCN2C(=O)c3ccccc3C2=O)c1OC	985
O=C(NC1CCC(CCN2Cc3cccc(F)c3C2)CC1)c1cccc(-c2cccnc2)c1 (stereo not given)	300

Compound	XC50 [nM]
CCN(CC)CCNc1ccnc2c3ccccc3n(C)c12	238
O=C(CCC1CCCC1)N(Cc1ccc(-c2ccc(CNCCc3ccccn3)cc2)cc1)CC1CCCCN1 (stereo not given)	1150
CC1CN(Cc2cccc(F)c2)CCN1c1ccc(NC(=O)c2cccs2)cc1 (stereo not given)	448
O=C(NCc1ccco1)c1ccc(S(=O)(=O)c2ccc(Cl)cc2)cc1	448
CCCCN1CCN(CCCNc2c3ccccc3nc3ccccc23)CC1	512
O=C(Nc1ccc(Oc2ccccc2)cc1)N[C@@H](Cc1ccc(O)cc1)C(=O)NC1CCN(Cc2ccc(O)c([N+](=O)[O-])c2)C1 (stereo not given in full)	1510
CCCCOc1cc(OC)c2ccccc2c1CCNCCCCNCCc1c(OCCCC)cc(OC)c2ccccc12	1050
CCC[C@@H]([C@@H](CC1CCCCC1)C(=O)N[C@H](C(=O)Nc1nccc(N)n1)C(C)(C)C)N(O)C=O	528
c1cncc(-c2cccc(CNc3nccc(Nc4ccc(OCCN5CCOCC5)cc4)n3)c2)c1	1060
CN(C)c1ccc(-c2nc3cc(N)ccc3[nH]2)cc1	239
Cc1sc(C)c(CNCCCNc2cc(=O)c3ccccc3[nH]2)c1Br	878
COc1ccccc1C(C)NCC(=O)Nc1cc(C(F)(F)F)ccc1Cl (stereo not given)	778
CN1CCC(NCc2ccc(-c3ccc(S(=O)(=O)NCc4ccccc4)c(F)c3)cc2)CC1	611
COc1cc(-c2nc(-c3ccccc3)c(-c3ccccc3)[nH]2)cc(OC)c1O	774
Cc1ccc(-c2nnc(-c3ccc(C(=O)NC4CCN(Cc5ccc(C#N)cc5)CC4)cc3)o2)cc1Br	852
Cn1cnc2nc(NCCc3ccccc3)nc(NCc3cccc4ccccc34)c21	327
COc1cccc(NC(=O)NC2CCN(c3ccnc(Nc4cc(OC)c(OC)c(OC)c4)n3)C2)c1 (stereo not given)	856
CN(C)CCN(C)Cc1ccc(-c2cccc(-c3nc4ccccc4[nH]3)c2)cc1	751
Cc1ccc(CNC(=O)c2cc3c(=O)n4cccc(C)c4nc3n(CCN3CCOCC3)c2=N)cc1	854
CN1CCN(Cc2ccc(-c3cc4c(Nc5ccc(OCc6cccc(F)c6)c(Cl)c5)ncnc4s3)[nH]2)CC1	766
CN1CCC(c2ccc(NC(=O)c3ccc(-c4cccc(C(F)(F)F)c4)o3)cc2)CC1	1130
COc1ccc(C2C(C(=O)Nc3ccccc3)=C(C)Nc3c(C(=O)Nc4ccccc4)cnn32)cc1 (stereo not given)	1310
Cc1sc(NC(=O)Cc2cccc(C(F)(F)F)c2)nc1-c1cccc(Cl)c1	470
